Test results from patent publication US20100137300A1, “Indolizine Acetic Acid Derivatives as CRTH2 Antagonists” (priority 2007, published 2010).

Target: T1, CRTH2 receptor (Homo sapiens, UniProt Q9Y5Y4)
T1 construct: expressed in transfected cells; host or cells: Human embryonic kidney (HEK) cells, membranes
T1 sequence (Q9Y5Y4 1-395): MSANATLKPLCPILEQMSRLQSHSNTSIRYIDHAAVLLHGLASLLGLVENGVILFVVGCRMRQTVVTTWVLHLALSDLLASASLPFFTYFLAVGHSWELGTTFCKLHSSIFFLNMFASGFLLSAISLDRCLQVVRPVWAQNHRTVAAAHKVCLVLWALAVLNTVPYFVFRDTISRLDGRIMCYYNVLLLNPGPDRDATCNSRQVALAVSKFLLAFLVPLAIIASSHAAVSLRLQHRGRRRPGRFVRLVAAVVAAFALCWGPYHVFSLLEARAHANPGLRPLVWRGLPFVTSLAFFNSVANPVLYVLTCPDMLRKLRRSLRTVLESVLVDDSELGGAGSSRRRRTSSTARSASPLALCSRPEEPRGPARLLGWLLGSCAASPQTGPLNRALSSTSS
Experiment: CRTH2 radioligand binding assay ([3H]-PGD2 displacement)
Details: HEK cell membranes expressing the CRTH2 receptor, 1 nM [3H]-PGD2
Experimental: The receptor binding assay is performed in a final volume of 200 μL binding buffer [10 mM BES (pH 7.4), 1 mM EDTA, 10 mM manganese chloride, 0.01% BSA] and 1 nM [^3H]-PGD2 (Amersham Biosciences UK Ltd). Ligands are added in assay buffer containing a constant amount of DMSO (1% by volume). Total binding is determined using 1% by volume of DMSO in assay buffer and non-specific binding is determined using 10 μM of unlabeled PGD2 (Sigma). Human embryonic kidney (HEK) cell membranes (3.5 μg) expressing the CRTH2 receptor are incubated with 1.5 mg wheatgerm agglutinin SPA beads and 1 nM [^3H]-PGD2 (Amersham Biosciences UK Ltd) and the mixture incubated for 3 hours at room temperature. Bound [^3H]-PGD2 is detected using a Microbeta TRILUX liquid scintillation counter (Perkin Elmer). Compound IC50 value is determined using a 6-point dose response curve in duplicate with a semi-log compound dilution series. IC50 calculations are performed using Excel and XLfit (Microsoft), and this value is used to determine a Ki value for the test compound using the Cheng-Prusoff equation.

| IC50 [nM] | Structure (SMILES) |
| --- | --- |
| 58 | Cc1c(Cc2ccc(S(=O)(=O)N3CCOCC3)cc2)c2cc(C#N)ccn2c1CC(=O)O [Example 1, {7-cyano-2-methyl-1-[4-(morpholine-4-sulfonyl)benzyl]indolizin-3-yl}acetic acid] |
| 19 | Cc1c(Cc2ccc3cc(F)ccc3n2)c2cc(C#N)ccn2c1CC(=O)O [Example 6, [7-cyano-1-(6-fluoroquinolin-2-ylmethyl)-2-methylindolizin-3-yl]acetic acid] |
